The experiment addresses phosphodiesterase IX (Homo sapiens (Human), UniProt O76083). Description: Inhibition activity to the phosphodiesterase IX. Type of experiment: biochemical. As to conditions: concentration of the inhibitor when the inhibition rate reaches 50%.

phosphodiesterase IX, sequence (O76083 whole entry): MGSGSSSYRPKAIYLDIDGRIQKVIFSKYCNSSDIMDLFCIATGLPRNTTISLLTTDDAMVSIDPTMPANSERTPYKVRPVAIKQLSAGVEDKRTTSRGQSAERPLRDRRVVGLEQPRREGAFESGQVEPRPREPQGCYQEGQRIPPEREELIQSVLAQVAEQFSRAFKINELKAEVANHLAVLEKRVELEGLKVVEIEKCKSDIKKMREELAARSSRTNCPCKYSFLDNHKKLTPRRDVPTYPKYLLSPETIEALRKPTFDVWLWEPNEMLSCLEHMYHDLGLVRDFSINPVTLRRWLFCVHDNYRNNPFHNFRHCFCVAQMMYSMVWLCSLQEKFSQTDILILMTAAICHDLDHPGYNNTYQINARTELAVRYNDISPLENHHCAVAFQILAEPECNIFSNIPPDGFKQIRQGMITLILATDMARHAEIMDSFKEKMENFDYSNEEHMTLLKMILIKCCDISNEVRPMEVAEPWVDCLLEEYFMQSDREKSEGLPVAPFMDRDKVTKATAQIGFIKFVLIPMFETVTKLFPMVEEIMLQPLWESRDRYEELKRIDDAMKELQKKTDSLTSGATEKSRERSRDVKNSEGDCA
Procedure: Inhibition activities of all the N-substituted pyrazolo [3,4-d] pyrimidine ketone compounds according to the present invention to the phosphodiesterase IX are tested.

As to `COc1ccc(NC(=O)C(C)Nc2nc3c(cnn3-c3ccccc3Cl)c(=O)[nH]2)cc1` (stereo not shown) [WYQ-94-D], the IC50 (as a rule, the concentration that gives 50% inhibition) is 6 nM.

Values taken from US9617269B2.
